Tests used:
adenosine A2A receptor = adenosine A2A receptor (Homo sapiens, UniProt P29274); conditions: read-out: % Inhib. 10 μM A2A
Method: As the standard control for the studied receptor-binding CGS15943, non-nucleoside agonist was applied. Non-specific binding was determined in the presence of NECA.
(§1) The 10 mM stock solutions were prepared by dissolving 0.5–1 mg of the tested compounds in suitable volume of DMSO. Next, dilutions in binding buffer were prepared to obtain concentration ranges 10^−10–10^−5 or 10^−9–10^−4 depending upon the compound potency. The concentration-response curves of the standard controls were made.
Non-specific binding was determined in the presence of NECA 50 μM (Sigma E2387, St. Louis, MO, USA).

adenosine A3 receptor = target: T1, adenosine A3 receptor (Homo sapiens, UniProt P0DMS8); assay: Radioligand competition binding assay, adenosine A3 receptor ([3H]-NECA); set-up: PEI (potency efficiency index), ligand efficiency for A3 receptor: dose or concentration left out as unconfirmed; conditions: for PEI (potency efficiency index), ligand efficiency for A3 receptor: PEI = (inhibition, ratio) / (MW, kD); for inhibition at 10 µM: read-out: % Inhib. 10 μM A3
T1 sequence (P0DMS8 1-318): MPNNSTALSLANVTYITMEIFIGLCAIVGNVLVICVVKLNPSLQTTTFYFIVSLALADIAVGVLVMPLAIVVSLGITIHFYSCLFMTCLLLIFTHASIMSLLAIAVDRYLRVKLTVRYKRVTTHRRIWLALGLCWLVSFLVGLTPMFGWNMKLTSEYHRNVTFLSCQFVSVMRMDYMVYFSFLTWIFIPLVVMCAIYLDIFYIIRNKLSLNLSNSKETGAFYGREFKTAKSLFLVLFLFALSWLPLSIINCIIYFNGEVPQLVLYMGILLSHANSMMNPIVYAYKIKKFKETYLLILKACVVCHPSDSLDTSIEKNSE
Method: as §1
Non-specific binding was determined in the presence of R-PIA 100 μM (Sigma P4532, St. Louis, MO, USA). The reaction mixture (Vt: 200 μL/well) was incubated at 25 °C for 180 min, after was filtered and washed six times with 250 μL wash buffer (Tris-HCl 50 mM pH = 7.4), before measuring in a microplate beta scintillation counter (Microbeta Trilux, PerkinElmer, Madrid, Spain).

Sequence of adenosine A2A receptor (P29274 whole entry): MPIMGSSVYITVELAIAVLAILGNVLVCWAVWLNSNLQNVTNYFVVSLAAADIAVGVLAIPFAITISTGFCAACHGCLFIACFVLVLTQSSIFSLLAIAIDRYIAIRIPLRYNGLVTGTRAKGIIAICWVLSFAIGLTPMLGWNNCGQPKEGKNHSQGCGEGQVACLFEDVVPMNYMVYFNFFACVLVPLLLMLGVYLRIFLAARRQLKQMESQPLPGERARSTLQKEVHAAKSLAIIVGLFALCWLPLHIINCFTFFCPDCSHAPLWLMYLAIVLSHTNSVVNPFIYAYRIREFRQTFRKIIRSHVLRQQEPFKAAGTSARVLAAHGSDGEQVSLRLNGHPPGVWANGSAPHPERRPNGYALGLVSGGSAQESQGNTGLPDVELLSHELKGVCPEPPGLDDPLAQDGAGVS

inhibition at 10 µM (adenosine A2A receptor) [%]	PEI (potency efficiency index), ligand efficiency for A3 receptor (adenosine A3 receptor)	inhibition at 10 µM (adenosine A3 receptor) [%]	Ki (adenosine A3 receptor) [nM]	SMILES
3 ± 1	0.20	5 ± 1		Nc1ncnc2c1ncn2[C@H]1C[C@H](O)[C@@H](CO)O1 [2′-deoxyadenosine, reference compound]
32 ± 1	2.54	98 ± 1	7.5	OC[C@H]1O[C@@H](n2cnc3c(NCCCc4ccccc4)ncnc32)[C@H](O)[C@@H]1O [Compound 4]
2 ± 1	1.61	67 ± 1	2210	Nc1ncnc2c1ncn2[C@@H]1O[C@H](CO)[C@@H](O)[C@H]1OCOCCCc1ccccc1 [Compound 12, 2′-O-(3-Phenylpropyleneoxymethyl)-adenosine]
	2.51			CC[C@@H]1Cn2c(c3nc(-c4cc(Cl)cc(Cl)c4Cl)nc-3n(C)c2=O)N1.Cl [PSB 10 hydrochloride, reference compound]

Source: paper PMC6222516 (Molecules : A Journal of Synthetic Chemistry and Natural …, 2018)
